Source: patent US9511048B2, “Use of flavone compound for prevention or treatment of obesity” (INDUSTRY-ACADEMIC COOPERATION FOUNDATION, YONSEI UNIVERSITY, priority 2012, dated 2016)

Experiments:
3T3-L1 preadipocytes = experiment: Inhibition of lipid production, Oil Red O staining of differentiated adipocytes; assay type: cell-based
Protocol: 3T3-L1 preadipocytes (American Type Culture Collection (ATCC), Manassas, Va., USA) were cultured in DMEM (Dulbecco's Modified Eagle's Medium) supplemented with 10% bovine calf serum, and seeded into 12-well microtiter plates with a density of 10^5 cells/well. Adipocyte differentiation was induced when the preadipocytes reached approximately 100% confluence after growing two more days at 90% confluence. For the experimental groups, induction of adipocyte differentiation was performed in the presence of 5,7-dimethoxyflavone at the concentration of 5, 10, or 20 μM dissolved in the culture medium containing dexamethasone, IBMX (3-isobutyl-1-methylxanthine), and insulin. Afterwards, cells of the experimental groups were maintained continuously in the presence of the same concentrations of 5,7-dimethoxyflavone dissolved in the culture medium containing 10% FBS and 0.1% insulin, replacing the medium every two days. For comparison, control cells were treated the same way as the cells of the experimental groups except for the 5,7-dimethoxyflavone treatment. On day 10 since induction of differentiation, fully differentiated adipocytes were stained with Oil Red O (Sigma, St. Louis, Mo., USA). Stained lipid droplets in the adipocytes were extracted with 100% isopropanol and subjected to the measurement of the absorbance at 500 nm using a spectrophotometer. […]

[1] = test system: C57BL/6 mice with high-fat diet-induced obesity; experiment: Weight-reducing effect in the mouse model of high fat diet-induced obesity; assay type: in vivo; details: 20 mg/kg oral once a day; for food intake versus control groups: eight weeks; for rate of weight gain at the end of eight weeks compared to the control group: p<0.05
Protocol: Three week-old C57BL/6 mice were acclimated for one week and fed with high-fat diet (product #D12492, Research Diet Inc., New Brunswick, N.J., USA) for six weeks to induce obesity. Mice were randomly divided into experimental and control groups, in total of four groups, ten per each group. The experimental groups were orally administered with either 5,7-dimethoxyflavone or 5,7,4′-trimethoxyflavone suspended in 0.25% carboxymethyl cellulose at a dose of 20 mg/kg body weight, once a day at regular hours for eight weeks. For comparison, the control groups were orally administered with 0.25% carboxymethyl cellulose only in the same manner as the experimental groups. Food intake and body weight of each sample mouse were measured every week.

[2] = test system: SREBP1c, C/EBP, FAS and ACC expression in 3T3-L1 adipocytes; experiment: Western blot of lipogenic transcription factors and enzymes; assay type: cell-based; details: proteins harvested after eight days
Protocol: (§1) It was examined whether the expression of proteins involved in lipid production was reduced by 5,7-dimethoxyflavone treatments in 3T3-L1 adipocytes. 3T3-L1 adipocytes were induced to differentiate in the same manner as described in Example 1-1, and were lysed with a RIPA buffered solution containing a proteinase inhibitor cocktail. Protein samples were boiled for 5 minutes, loaded ([…]) on 10% SDS-PAGE gels and separated by electrophoresis. Separated proteins were transferred to the nitrocellulose membranes and subjected to western blot experiments. Protein-transferred membranes were reacted with primary antibodies, rinsed with TBST three times, 10 minutes each. The dilution ratio of primary antibodies was 1:1000. Membranes reacted with primary antibodies were followed with secondary antibody incubation (anti-rabbit horseradish) for 2 hours at room temperature. The dilution ratio of secondary antibodies was 1:5000. Protein bands were visualized with ECL western blotting detection reagents (Amersham, Tokyo, Japan). Proteins were harvested after eight days and subjected to western blot experiments.

[3] = test system: UCP2 and UCP3 expression in 3T3-L1 adipocytes; experiment: Western blot of thermogenic proteins; assay type: cell-based
Protocol: as §1
Proteins were harvested from the 3T3-L1 adipocytes differentiated as described in Example 1-1, and subjected to western blot experiments in the same manner as in Example 1-2.

| SMILES | reduction in lipid production compared to the control (3T3-L1 preadipocytes; 20 μM, p<0.01) [%] | food intake versus control groups [1] | rate of weight gain at the end of eight weeks compared to the control group [1] | lipid production in 3T3-L1 adipocytes (3T3-L1 preadipocytes; 5, 10 or 20 μM, day 10 after induction of differentiation, Oil Red O, absorbance 500 nm) | expression of SREBP1c, C/EBP, FAS and ACC [2] | expression of UCP2 and UCP3 [3] |
| --- | --- | --- | --- | --- | --- | --- |
| COc1ccc(-c2cc(=O)c3c(OC)cc(OC)cc3o2)cc1 [5,7,4′-trimethoxyflavone] | 28 | no significant difference | significantly lower |  |  |  |
| COc1cc(OC)c2c(=O)cc(-c3ccccc3)oc2c1 [5,7-dimethoxyflavone] |  | no significant difference | significantly lower | suppresses lipid production in 3T3-L1 adipocytes effectively | reduction in the expression | upregulated the expression of UCP2 and UCP3 |
